Laboratory results as given in paper PMC7252619 (PLoS ONE, 2020).
Where “and” joins values, the source holds several entries; their conditions need not be identical. Equal entries are not always repeated. Where two headings read alike, the source gives them in different places.

Assays:
Experiment in all cases: Kinase activity test (ReactionBiology), % enzyme activity relative to DMSO
Assay type in all cases: biochemical
[1] = molecular target: T1, CK1d (Homo sapiens, UniProt P48730); conditions: for % Enzyme Activity (relative to DMSO controls), Data 1: replicate Data 1
T1 construct: purchased ReactionBiology
T1 sequence (P48730 whole entry): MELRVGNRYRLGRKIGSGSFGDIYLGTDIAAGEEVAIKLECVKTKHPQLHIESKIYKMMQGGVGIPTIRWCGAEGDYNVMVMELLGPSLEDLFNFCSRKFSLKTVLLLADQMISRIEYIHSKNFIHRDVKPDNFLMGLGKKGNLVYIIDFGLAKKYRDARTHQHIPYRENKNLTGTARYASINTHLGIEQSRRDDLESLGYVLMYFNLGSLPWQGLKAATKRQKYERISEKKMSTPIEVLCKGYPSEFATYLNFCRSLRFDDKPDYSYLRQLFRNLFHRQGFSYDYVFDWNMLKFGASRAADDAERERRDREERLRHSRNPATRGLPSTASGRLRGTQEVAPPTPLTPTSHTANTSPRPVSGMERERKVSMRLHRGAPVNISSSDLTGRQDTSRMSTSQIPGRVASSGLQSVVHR

[2] = molecular target: T2, DAPK1 (Homo sapiens, UniProt P53355)
T2 construct: purchased ReactionBiology
T2 sequence (P53355 whole entry): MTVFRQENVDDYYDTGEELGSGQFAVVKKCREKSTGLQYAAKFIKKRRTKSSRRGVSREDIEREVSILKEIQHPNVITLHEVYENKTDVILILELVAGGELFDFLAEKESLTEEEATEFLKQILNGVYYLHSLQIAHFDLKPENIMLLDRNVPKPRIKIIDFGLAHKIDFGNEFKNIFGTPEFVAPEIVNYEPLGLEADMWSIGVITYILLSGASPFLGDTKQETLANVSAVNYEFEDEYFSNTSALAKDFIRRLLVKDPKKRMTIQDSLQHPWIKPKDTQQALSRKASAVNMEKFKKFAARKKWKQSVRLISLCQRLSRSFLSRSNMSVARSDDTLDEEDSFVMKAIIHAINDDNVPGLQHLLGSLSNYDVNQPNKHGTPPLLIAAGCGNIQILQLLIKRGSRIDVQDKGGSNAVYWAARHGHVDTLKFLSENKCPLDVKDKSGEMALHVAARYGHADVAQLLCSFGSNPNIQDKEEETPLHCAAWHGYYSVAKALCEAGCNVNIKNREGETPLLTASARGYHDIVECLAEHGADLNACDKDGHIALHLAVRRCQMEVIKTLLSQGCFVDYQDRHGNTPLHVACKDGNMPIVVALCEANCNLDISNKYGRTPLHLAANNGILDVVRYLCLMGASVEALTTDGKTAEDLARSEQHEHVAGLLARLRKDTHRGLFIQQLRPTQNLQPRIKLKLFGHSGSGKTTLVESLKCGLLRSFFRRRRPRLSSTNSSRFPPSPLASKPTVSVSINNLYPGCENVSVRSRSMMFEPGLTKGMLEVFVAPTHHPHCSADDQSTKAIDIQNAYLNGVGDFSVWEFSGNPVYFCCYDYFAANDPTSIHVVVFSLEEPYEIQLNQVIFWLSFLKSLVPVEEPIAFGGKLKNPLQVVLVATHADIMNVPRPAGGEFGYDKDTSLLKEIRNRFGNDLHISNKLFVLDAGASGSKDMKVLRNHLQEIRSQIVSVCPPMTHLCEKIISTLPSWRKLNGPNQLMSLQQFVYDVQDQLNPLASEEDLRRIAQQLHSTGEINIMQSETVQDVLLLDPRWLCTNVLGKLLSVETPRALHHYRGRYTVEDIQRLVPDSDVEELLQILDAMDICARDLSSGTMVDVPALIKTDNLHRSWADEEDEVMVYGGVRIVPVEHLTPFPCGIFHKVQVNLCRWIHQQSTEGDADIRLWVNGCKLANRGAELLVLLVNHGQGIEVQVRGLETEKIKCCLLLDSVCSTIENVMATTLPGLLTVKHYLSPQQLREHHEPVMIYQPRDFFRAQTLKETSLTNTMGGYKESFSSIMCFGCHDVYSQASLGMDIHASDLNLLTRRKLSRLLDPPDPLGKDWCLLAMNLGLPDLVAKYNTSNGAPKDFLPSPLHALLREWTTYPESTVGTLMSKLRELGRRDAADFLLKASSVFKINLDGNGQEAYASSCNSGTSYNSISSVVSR

[3] = molecular target: T3, EPHB4 (Homo sapiens, UniProt P54760);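 further: EPHB4 was one of ten selected kinases in the screening panel, with enzyme activity expressed as a percentage of DMSO controls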
T3 construct: purchased ReactionBiology
T3 sequence (P54760 16-987): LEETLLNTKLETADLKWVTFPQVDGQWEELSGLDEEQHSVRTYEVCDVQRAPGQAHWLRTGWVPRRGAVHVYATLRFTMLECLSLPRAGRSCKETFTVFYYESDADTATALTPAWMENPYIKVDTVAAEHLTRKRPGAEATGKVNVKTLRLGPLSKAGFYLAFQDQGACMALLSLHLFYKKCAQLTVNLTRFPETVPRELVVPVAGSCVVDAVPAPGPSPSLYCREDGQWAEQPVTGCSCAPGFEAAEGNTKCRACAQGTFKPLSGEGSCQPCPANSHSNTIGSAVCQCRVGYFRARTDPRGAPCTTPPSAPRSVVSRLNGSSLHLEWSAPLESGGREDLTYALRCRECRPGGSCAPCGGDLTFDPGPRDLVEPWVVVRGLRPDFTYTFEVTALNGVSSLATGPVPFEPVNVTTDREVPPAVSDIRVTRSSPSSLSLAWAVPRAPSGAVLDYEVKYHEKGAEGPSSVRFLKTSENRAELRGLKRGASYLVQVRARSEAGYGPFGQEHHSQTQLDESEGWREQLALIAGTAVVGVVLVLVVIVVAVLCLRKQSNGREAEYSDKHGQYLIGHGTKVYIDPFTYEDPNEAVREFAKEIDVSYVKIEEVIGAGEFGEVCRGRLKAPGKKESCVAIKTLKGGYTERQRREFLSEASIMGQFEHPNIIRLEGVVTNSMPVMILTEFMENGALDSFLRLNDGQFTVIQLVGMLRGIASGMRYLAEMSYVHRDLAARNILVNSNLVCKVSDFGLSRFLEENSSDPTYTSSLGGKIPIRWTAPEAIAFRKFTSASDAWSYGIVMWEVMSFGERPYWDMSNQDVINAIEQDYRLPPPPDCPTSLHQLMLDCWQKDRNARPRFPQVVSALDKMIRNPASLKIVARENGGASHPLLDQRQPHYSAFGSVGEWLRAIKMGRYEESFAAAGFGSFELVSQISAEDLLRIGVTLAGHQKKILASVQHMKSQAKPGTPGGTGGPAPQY

[4] = molecular target: VEGFR2 (Homo sapiens, UniProt P35968); set-up: purchased ReactionBiology; conditions: for remaining activity at 1 µM / remaining activity at 10 µM: VEGFR2;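 on all read-outs here: VEGFR2 was one member of a ten-kinase screening panel testing marketed FDA-approved drugs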
Sequence of VEGFR2 (P35968 20-1356): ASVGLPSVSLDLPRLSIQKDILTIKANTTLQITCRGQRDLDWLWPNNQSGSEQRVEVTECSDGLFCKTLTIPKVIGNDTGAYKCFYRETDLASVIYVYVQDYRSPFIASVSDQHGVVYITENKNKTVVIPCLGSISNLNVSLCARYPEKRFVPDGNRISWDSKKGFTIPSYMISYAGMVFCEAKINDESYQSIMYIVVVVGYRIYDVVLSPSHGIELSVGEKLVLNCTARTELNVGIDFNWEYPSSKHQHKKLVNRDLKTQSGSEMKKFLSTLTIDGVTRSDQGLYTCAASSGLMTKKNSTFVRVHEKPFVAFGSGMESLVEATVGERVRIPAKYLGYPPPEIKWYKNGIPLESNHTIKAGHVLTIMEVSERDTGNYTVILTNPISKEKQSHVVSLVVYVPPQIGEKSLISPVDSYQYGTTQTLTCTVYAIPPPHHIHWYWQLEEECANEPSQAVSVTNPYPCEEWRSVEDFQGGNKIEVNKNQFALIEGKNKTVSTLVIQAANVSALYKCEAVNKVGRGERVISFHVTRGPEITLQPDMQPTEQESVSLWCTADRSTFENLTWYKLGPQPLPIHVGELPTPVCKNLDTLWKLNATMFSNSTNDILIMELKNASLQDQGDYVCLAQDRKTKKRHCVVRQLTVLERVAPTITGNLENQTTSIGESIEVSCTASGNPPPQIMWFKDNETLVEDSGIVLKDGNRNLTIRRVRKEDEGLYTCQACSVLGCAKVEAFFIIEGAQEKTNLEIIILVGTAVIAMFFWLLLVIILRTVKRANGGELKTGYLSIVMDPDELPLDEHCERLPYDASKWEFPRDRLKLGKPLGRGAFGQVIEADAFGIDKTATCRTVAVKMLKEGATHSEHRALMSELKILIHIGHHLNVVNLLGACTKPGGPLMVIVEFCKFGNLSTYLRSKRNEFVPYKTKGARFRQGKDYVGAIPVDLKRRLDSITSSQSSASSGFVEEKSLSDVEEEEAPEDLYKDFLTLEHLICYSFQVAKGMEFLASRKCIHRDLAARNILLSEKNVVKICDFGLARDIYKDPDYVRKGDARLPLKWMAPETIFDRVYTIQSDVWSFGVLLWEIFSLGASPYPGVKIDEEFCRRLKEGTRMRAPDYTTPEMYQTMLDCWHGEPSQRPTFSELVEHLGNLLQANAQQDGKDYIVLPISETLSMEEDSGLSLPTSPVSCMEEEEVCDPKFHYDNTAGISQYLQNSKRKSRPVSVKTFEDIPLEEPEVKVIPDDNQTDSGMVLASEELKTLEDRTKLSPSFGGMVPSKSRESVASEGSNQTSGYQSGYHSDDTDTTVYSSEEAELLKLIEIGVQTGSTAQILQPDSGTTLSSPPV

[5] = read-out: % Enzyme Activity (relative to DMSO controls), Average
[6] = read-out: % Enzyme Activity (relative to DMSO controls), Data 1
[7] = read-out: % Enzyme Activity (relative to DMSO controls), Data 2
[8] = Average, read-out: % Enzyme Activity (relative to DMSO controls), Average
[9] = replicate Data 1, read-out: % Enzyme Activity (relative to DMSO controls), Data 1
[10] = replicate Data 2, read-out: % Enzyme Activity (relative to DMSO controls), Data 2

## CC(C)c1cccc(C(C)C)c1O [Propofol, reference compound]
[1]; [5]
  remaining activity at 1 µM: 126%
  remaining activity at 10 µM: 112%
[1]; [6]
  remaining activity at 1 µM: 145%
  remaining activity at 10 µM: 116%
[1]; [7]
  remaining activity at 1 µM: 108%
  remaining activity at 10 µM: 108%
[2]; [5]
  remaining activity at 1 µM: 107%
  remaining activity at 10 µM: 86.5%
[2]; [6]
  remaining activity at 1 µM: 113%
  remaining activity at 10 µM: 86.4%
[2]; [7]
  remaining activity at 1 µM: 102%
  remaining activity at 10 µM: 86.5%
[3]; [5]
  remaining activity at 1 µM: 67%
  remaining activity at 10 µM: 68.4%
[3]; [6]
  remaining activity at 1 µM: 76%
  remaining activity at 10 µM: 68.4%
[3]; [7]
  remaining activity at 1 µM: 57.9%
  remaining activity at 10 µM: 68.5%
[3]; read-out: % Enzyme activity at 1μM
  remaining activity at 1 µM: 67%
[3]; read-out: % Enzyme activity at 10μM
  remaining activity at 10 µM: 68.4%

## CC(C)c1nc(CN(C)C(=O)N[C@H](C(=O)N[C@@H](Cc2ccccc2)C[C@H](O)[C@H](Cc2ccccc2)NC(=O)OCc2cncs2)C(C)C)cs1 [Ritonavir, reference compound]
[4]; [8]
  remaining activity at 1 µM: 111%
  remaining activity at 10 µM: 109%
[4]; [9]
  remaining activity at 1 µM: 111%
  remaining activity at 10 µM: 113%
[4]; [10]
  remaining activity at 1 µM: 112%
  remaining activity at 10 µM: 106%
[2]; DAPK1, 1 uM, Average, read-out: % Enzyme Activity (relative to DMSO controls), Average
  remaining activity at 1 µM: 92.6%
[2]; DAPK1, 1 uM, replicate Data 1, read-out: % Enzyme Activity (relative to DMSO controls), Data 1
  remaining activity at 1 µM: 94.8%
[2]; DAPK1, 1 uM, replicate Data 2, read-out: % Enzyme Activity (relative to DMSO controls), Data 2
  remaining activity at 1 µM: 90.4%
[2]; DAPK1, 10 uM, Average, read-out: % Enzyme Activity (relative to DMSO controls), Average
  remaining activity at 10 µM: 38.5%
[2]; DAPK1, 10 uM, replicate Data 1, read-out: % Enzyme Activity (relative to DMSO controls), Data 1
  remaining activity at 10 µM: 39.2%
[2]; DAPK1, 10 uM, replicate Data 2, read-out: % Enzyme Activity (relative to DMSO controls), Data 2
  remaining activity at 10 µM: 37.7%
[2]; DAPK1, compound 1μM, relative to DMSO controls, read-out: % Enzyme activity at 1μM
  remaining activity at 1 µM: 92.6%
[2]; DAPK1, compound 10μM, relative to DMSO controls, read-out: % Enzyme activity at 10μM
  remaining activity at 10 µM: 38.5%
[3]; EPHB4, 1 uM, Average, read-out: % Enzyme Activity (relative to DMSO controls), Average
  remaining activity at 1 µM: 99.2%
[3]; EPHB4, 1 uM, replicate Data 1, read-out: % Enzyme Activity (relative to DMSO controls), Data 1
  remaining activity at 1 µM: 99.5%
[3]; EPHB4, 1 uM, replicate Data 2, read-out: % Enzyme Activity (relative to DMSO controls), Data 2
  remaining activity at 1 µM: 98.9%
[3]; EPHB4, 10 uM, Average, read-out: % Enzyme Activity (relative to DMSO controls), Average
  remaining activity at 10 µM: 95.1%
[3]; EPHB4, 10 uM, replicate Data 1, read-out: % Enzyme Activity (relative to DMSO controls), Data 1
  remaining activity at 10 µM: 97.2%
[3]; EPHB4, 10 uM, replicate Data 2, read-out: % Enzyme Activity (relative to DMSO controls), Data 2
  remaining activity at 10 µM: 93.1%

## CS(=O)(=O)c1ccc(C2=C(c3ccccc3)C(=O)OC2)cc1 [Rofecoxib]
[2]; DAPK1, 1 uM, Average
  % Enzyme Activity (relative to DMSO controls), Average: 107.94%
[2]; DAPK1, 1 uM, replicate Data 1
  % Enzyme Activity (relative to DMSO controls), Data 1: 111.72%
[2]; DAPK1, 1 uM, replicate Data 2
  % Enzyme Activity (relative to DMSO controls), Data 2: 104.16%
[2]; DAPK1, 10 uM, Average
  % Enzyme Activity (relative to DMSO controls), Average: 91.65%
[2]; DAPK1, 10 uM, replicate Data 1
  % Enzyme Activity (relative to DMSO controls), Data 1: 92.47%
[2]; DAPK1, 10 uM, replicate Data 2
  % Enzyme Activity (relative to DMSO controls), Data 2: 90.82%
[3]; EPHB4, 1 uM, Average
  % Enzyme Activity (relative to DMSO controls), Average: 93.84%
[3]; EPHB4, 1 uM, replicate Data 1
  % Enzyme Activity (relative to DMSO controls), Data 1: 92.91%
[3]; EPHB4, 1 uM, replicate Data 2
  % Enzyme Activity (relative to DMSO controls), Data 2: 94.77%
[3]; EPHB4, 10 uM, Average
  % Enzyme Activity (relative to DMSO controls), Average: 82.31%
[3]; EPHB4, 10 uM, replicate Data 1
  % Enzyme Activity (relative to DMSO controls), Data 1: 77.99%
[3]; EPHB4, 10 uM, replicate Data 2
  % Enzyme Activity (relative to DMSO controls), Data 2: 86.63%

## Nc1c2c(nc3ccccc13)CCCC2 [Tacrine]
[4]
  % Enzyme Activity (relative to DMSO controls), Data 2: 94.26% and 99.54%
[1]
  % Enzyme Activity (relative to DMSO controls), Data 2: 118.35%
[3]
  % Enzyme Activity (relative to DMSO controls), Data 2: 73.14% and 73.39%

## Penicillin
[1]; CK1d, 1 uM
  % Enzyme Activity (relative to DMSO controls), Average: 98.45%
  % Enzyme Activity (relative to DMSO controls), Data 1: 97.41%
[1]; CK1d, 1 uM, replicate Data 2
  % Enzyme Activity (relative to DMSO controls), Data 2: 99.49%
[1]; CK1d, 10 uM
  % Enzyme Activity (relative to DMSO controls), Average: 115.43%
  % Enzyme Activity (relative to DMSO controls), Data 1: 111.85%
[1]; CK1d, 10 uM, replicate Data 2
  % Enzyme Activity (relative to DMSO controls), Data 2: 119.01%
[3]; EPHB4, 1 uM, Average
  % Enzyme Activity (relative to DMSO controls), Average: 101.77%
[3]; EPHB4, 1 uM, replicate Data 1
  % Enzyme Activity (relative to DMSO controls), Data 1: 104.24%
[3]; EPHB4, 1 uM, replicate Data 2
  % Enzyme Activity (relative to DMSO controls), Data 2: 99.3%
[3]; EPHB4, 10 uM, Average
  % Enzyme Activity (relative to DMSO controls), Average: 95.95%
[3]; EPHB4, 10 uM, replicate Data 1
  % Enzyme Activity (relative to DMSO controls), Data 1: 97.18%
[3]; EPHB4, 10 uM, replicate Data 2
  % Enzyme Activity (relative to DMSO controls), Data 2: 94.72%
